Laboratory results as given in patent publication US20120065084A1, “METHODS AND TOOLS FOR PREDICTING THE EFFICIENCY OF ANTHRACYCLINES IN CANCER” (UNIVERSITE LIBRE DE BRUXELLES, priority 2010, published 2012).

Test system: primary breast tumor
Experiment: neoadjuvant prospective TOP trial: pathological complete response to anthracyclines (epirubicin) monotherapy
Assay type: in vivo, human
Description: One hundred and forty-nine patients were included in the prospective TOP trial. Out of these patients, 89 received 4 cycles of anthracyclines every 3 weeks, 59 patients received 6 cycles of anthracyclines administered every 2 weeks (dose-dense scheme) and one was not treated according to the protocol due to ineligibility.
The neoadjuvant prospective “TOP” (Trial of Principle) trial was conducted at different European hospitals and coordinated by the Institut Jules Bordet. This study is registered on the clinical trials site of the US National Cancer Institute website http://clinicaltrials.gov/ct2/show/NCT00162812?term=NCT00162812&rank=1. One hundred and forty-nine patients have been included in this trial. Anthracyclines (Epirubicin) monotherapy (100 mg/m2) was given as neo-adjuvant chemotherapy: every 3 weeks×4 cycles for early BC or every 2 weeks×6 cycles with Neulasta® 6 mg on day 2 for patients with inflammatory or locally advanced breast cancer. At completion of chemotherapy, every patient underwent surgery with axillary node sampling. After surgery, adjuvant docetaxel (100 mg/m2×4 cycles) and loco-regional irradiation were administered using standard criteria. This study was primarily designed for the identification of biomarkers of response to anthracyclines (epirubicin).
All patients underwent pretreatment core biopsies of the primary breast tumor before starting neo-adjuvant chemotherapy using a 14G needle. Two biopsies were embedded in OCT (Sakura), frozen in liquid nitrogen within 5 minutes and transferred to a −80° C. freezer. Two biopsies were fixed in formalin and embedded in paraffin. Both fixed and frozen samples were retrieved and stored at the Institut Jules Bordet in Brussels, where the TOP2A evaluations were carried out. Pathologic response was determined by microscopic examination of the excised tumor and nodes after completion of chemotherapy. Pathological complete response (pCR) was defined by the absence of residual invasive breast carcinoma (macro and microscopic) in the breast and in the axillary nodes. Persistence of in-situ carcinoma without invasive component was considered pCR.

COc1cccc2c1C(=O)c1c(O)c3c(c(O)c1C2=O)C[C@@](O)(C(=O)CO)C[C@@H]3O[C@H]1C[C@H](N)[C@@H](O)[C@H](C)O1 [anthracyclines, Epirubicin]
pathological complete response (pCR) rate (3-weekly scheme (every 3 weeks x 4 cycles)): 14% | proportion of patients who presented a pCR (HER2-negative patients (FISH)): 10% | proportion of patients who presented a pCR (HER2-positive patients (FISH)): 23% | pathological complete response (pCR) rate (all patients of the TOP trial, neo-adjuvant epirubicin monotherapy 100 mg/m2): 15% | pathological complete response (pCR) rate (dose-dense scheme (every 2 weeks x 6 cycles)): 16% | patients who responded to the anthracyclines therapy (pCR) (patients whose tumors had no TOP2A amplification (FISH)): 9% | patients who responded to the anthracyclines therapy (pCR) (patients with TOP2A amplified tumors (FISH)): 55%
